The first assay deals with T1, Xanthine dehydrogenase/oxidase (Homo sapiens, UniProt P47989). The assay is described as follows: Inhibition of xanthine oxidase (unknown origin) measured by spectrophotometric analysis.
T1 sequence (P47989 whole entry): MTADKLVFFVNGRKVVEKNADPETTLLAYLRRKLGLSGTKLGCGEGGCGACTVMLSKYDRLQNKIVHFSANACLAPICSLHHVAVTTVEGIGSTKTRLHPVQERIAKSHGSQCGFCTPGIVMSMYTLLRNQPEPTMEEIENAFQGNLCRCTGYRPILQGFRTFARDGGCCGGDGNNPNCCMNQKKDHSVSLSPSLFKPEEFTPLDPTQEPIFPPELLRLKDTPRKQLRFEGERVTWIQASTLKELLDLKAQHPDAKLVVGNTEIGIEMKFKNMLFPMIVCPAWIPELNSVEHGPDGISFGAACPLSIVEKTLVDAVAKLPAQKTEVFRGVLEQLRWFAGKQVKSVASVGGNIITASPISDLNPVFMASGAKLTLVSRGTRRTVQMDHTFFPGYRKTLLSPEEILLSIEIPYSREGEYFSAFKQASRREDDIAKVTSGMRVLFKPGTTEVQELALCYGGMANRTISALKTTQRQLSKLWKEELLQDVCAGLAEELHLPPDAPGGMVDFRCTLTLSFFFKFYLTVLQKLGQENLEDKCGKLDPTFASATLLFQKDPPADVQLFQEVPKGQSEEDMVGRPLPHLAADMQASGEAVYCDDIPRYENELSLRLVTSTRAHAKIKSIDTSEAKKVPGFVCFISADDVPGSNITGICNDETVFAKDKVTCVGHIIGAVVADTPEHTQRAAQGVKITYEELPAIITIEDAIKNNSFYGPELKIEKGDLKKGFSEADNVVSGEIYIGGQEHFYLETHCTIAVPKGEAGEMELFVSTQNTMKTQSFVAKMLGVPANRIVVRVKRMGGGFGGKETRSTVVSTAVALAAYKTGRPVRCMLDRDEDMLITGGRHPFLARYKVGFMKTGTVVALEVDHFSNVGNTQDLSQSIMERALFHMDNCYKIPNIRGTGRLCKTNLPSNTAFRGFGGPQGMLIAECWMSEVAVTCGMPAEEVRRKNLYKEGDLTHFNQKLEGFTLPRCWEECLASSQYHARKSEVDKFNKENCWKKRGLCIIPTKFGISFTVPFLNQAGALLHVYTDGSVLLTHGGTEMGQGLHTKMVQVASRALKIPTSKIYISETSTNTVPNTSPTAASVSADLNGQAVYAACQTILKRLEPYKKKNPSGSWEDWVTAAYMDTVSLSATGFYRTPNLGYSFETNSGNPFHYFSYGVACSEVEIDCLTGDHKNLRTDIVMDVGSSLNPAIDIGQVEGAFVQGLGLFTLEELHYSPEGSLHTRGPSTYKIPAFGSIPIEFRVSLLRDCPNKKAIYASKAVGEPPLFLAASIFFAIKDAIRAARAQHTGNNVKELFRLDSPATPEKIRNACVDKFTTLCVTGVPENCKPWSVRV
Broadly, the IC50 is the point on the concentration scale where inhibition reaches its midpoint. Higher therefore signals weaker potency in that assay. In the case of `Cc1nc(-c2ccc(OCC(C)C)c(C#N)c2)sc1C(=O)O` [FEBUXOSTAT], the concentration for half-maximal inhibition (IC50) was 0.00292 µM. That is a single-digit nanomolar value.

In the case of `NC1=NC(=O)/C(=C/c2cccc(F)c2)S1`, the IC50 is 1.02 µM.

In another assay the target is T1, Xanthine dehydrogenase/oxidase. Kind of assay: Inhibition of xanthine oxidase (unknown origin) at 10 uM measured by spectrophotometric analysis relative to control.
A word on the inhibition: it is the relative decrease from the control value, in per cent. Take `N=C1SCC(=O)N1c1ncc(OCc2ccc(Cl)cc2Cl)s1`: the inhibition at 10 µM is < 40%.

In the case of `COc1ccc(/C=C2\SC(=S)NC2=O)cc1OC`, the inhibition at 10 µM was 44.4%.

In the case of `Cc1ccc(Cl)c2c1NC(=O)/C2=C1/SC(N)=NC1=O`, the inhibition at 10 µM was < 40%.

As for `COc1ccc(/C=C2/SC(N)=NC2=O)cc1`, the inhibition at 10 µM is < 40%.

On to `Cc1ccc(C(=O)Oc2cccc(/C=C3\SC(N)=NC3=O)c2)cc1`, for which the inhibition at 10 µM is < 40%.

In the case of `NC1=NC(=O)/C(=C/c2cccc(F)c2)S1`, the inhibition at 10 µM was found to be 91.5%.

For the compound `Cc1ccc(C(=O)Oc2ccc(Br)cc2/C=C2\SC(N)=NC2=O)cc1`, the inhibition at 10 µM is < 40%.

Turning to `NC1=NC(=O)/C(=C/c2cc(Br)cc(Br)c2OCc2ccc(Cl)cc2Cl)S1`, the inhibition at 10 µM is < 40%.

Turning to `COc1cc(/C=C2/SC(S)=NC2=O)ccc1Cc1ccccc1Cl`, the inhibition at 10 µM is < 40%.

Consider `O=C1N=C(S)S/C1=C/c1cc(Cl)ccc1O`, for which the inhibition at 10 µM was < 40%.

A further assay has the same target. The assay is described as follows: Inhibition of xanthine oxidase (unknown origin) at 0.1 uM measured by spectrophotometric analysis relative to control.
With `Cc1nc(-c2ccc(OCC(C)C)c(C#N)c2)sc1C(=O)O` [FEBUXOSTAT], the inhibition at 0.1 µM came to 102%.

These data come from ChEMBL document CHEMBL5143568, “Identification of novel xanthine oxidase inhibitors via virtual screening with enhanced characterization of molybdopterin binding groups” (Eur J Med Chem, 2022).
